Laboratory results taken from PMC11899342, “Novel Triazeneindole Antibiotics: Synthesis and Hit-to-Lead Optimization” (International Journal of Molecular Sciences, 2025).

System: Wistar outbred rats
Experiment: Single-dose acute toxicity, intragastric administration
Type: in vivo, rat
Conditions: for Changes Appearance / Changes Behavior / Changes Body Weight / Changes Feed Intake / Changes Organ Histology / Changes Organ Weight / Changes Water Intake: 14-day follow-up; for Relative organ weight, Adrenal glands / Relative organ weight, Brain / Relative organ weight, Heart / Relative organ weight, Kidneys / Relative organ weight, Liver / Relative organ weight, Lungs with trachea / Relative organ weight, Ovaries / Relative organ weight, Spleen / Relative organ weight, Thymus / Relative organ weight, Testes: after 15 days, M±SEM; for number of animals that died: all dose groups; for Deaths (Dead/ Total): Wistar, rat, in vivo
Protocol: Before administration, the BX-SI043 substance was resuspended in a 1% starch solution. The animals in the treatment groups received suspensions intragastrically in doses of 2000 mg/kg (administered in two equal doses, with a 30–40 min interval), 1000 mg/kg, 600 mg/kg, and 300 mg/kg (administered in single doses).
The animals were monitored daily for any abnormalities. On the 2nd, 7th, and 13th days after administration, the animals were clinically evaluated and weighed, and the consumption of feed and water were measured. On the 14th day, the behavior of the animals was evaluated. On the 15th day, the animals were euthanized, and the lungs (with trachea), heart, thymus, liver, kidneys, spleen, stomach, small intestine, colon, brain, adrenal glands, and testes/ovaries were fixed in 10% neutral formalin for histological evaluation.

[1] = female rats, 300 mg/kg intragastric
[2] = female rats, 600 mg/kg intragastric
[3] = female rats, 1000 mg/kg intragastric
[4] = female rats, 2000 mg/kg intragastric
[5] = male rats, 300 mg/kg intragastric
[6] = male rats, 600 mg/kg intragastric
[7] = male rats, 1000 mg/kg intragastric
[8] = male rats, 2000 mg/kg intragastric

Compound: CCOC(=O)c1[nH]c2cc(F)ccc2c1/N=N/N1CCCC1 [BX-SI043, Ethyl (E)-6-fluoro-3-(pyrrolidin-1-yldiazenyl)-1H-indole-2-carboxylate]
- Changes Appearance [1]: no
- Changes Behavior [1]: no
- Changes Body Weight [1]: no
- Changes Feed Intake [1]: no
- Changes Organ Histology [1]: no
- Changes Organ Weight [1]: no
- Changes Water Intake [1]: no
- Relative organ weight, Adrenal glands [1]: 0,03±0,003 % of body weight
- Relative organ weight, Brain [1]: 0,84±0,032 % of body weight
- Relative organ weight, Heart [1]: 0,46±0,012 % of body weight
- Relative organ weight, Kidneys [1]: 0,87±0,065 % of body weight
- Relative organ weight, Liver [1]: 4,79±0,090 % of body weight
- Relative organ weight, Lungs with trachea [1]: 0,77±0,037 % of body weight
- Relative organ weight, Ovaries [1]: 0,067±0,0043 % of body weight
- Relative organ weight, Spleen [1]: 0,37±0,033 % of body weight
- Relative organ weight, Thymus [1]: 0,280±0,016 % of body weight
- Body weight, M±SEM (female rats, 300 mg/kg intragastric, experiment day 1): 195,3±3,67 g
- Body weight, M±SEM (female rats, 300 mg/kg intragastric, experiment day 2): 194,8±3,92 g
- Body weight, M±SEM (female rats, 300 mg/kg intragastric, experiment day 7): 220,0±7,86 g
- Body weight, M±SEM (female rats, 300 mg/kg intragastric, experiment day 15): 234,7±9,33 g
- Changes Appearance [2]: no
- Changes Behavior [2]: no
- Changes Body Weight [2]: no
- Changes Feed Intake [2]: no
- Changes Organ Histology [2]: yes
- Changes Organ Weight [2]: no
- Changes Water Intake [2]: no
- Relative organ weight, Adrenal glands [2]: 0,04±0,002 % of body weight
- Relative organ weight, Brain [2]: 0,86±0,031 % of body weight
- Relative organ weight, Heart [2]: 0,48±0,007 % of body weight
- Relative organ weight, Kidneys [2]: 0,78±0,021 % of body weight
- Relative organ weight, Liver [2]: 4,64±0,067 % of body weight
- Relative organ weight, Lungs with trachea [2]: 0,82±0,044 % of body weight
- Relative organ weight, Ovaries [2]: 0,066±0,0032 % of body weight
- Relative organ weight, Spleen [2]: 0,33±0,045 % of body weight
- Relative organ weight, Thymus [2]: 0,310±0,013 % of body weight
- Body weight, M±SEM (female rats, 600 mg/kg intragastric, experiment day 1): 195,2±4,56 g
- Body weight, M±SEM (female rats, 600 mg/kg intragastric, experiment day 2): 207,7±4,08 g
- Body weight, M±SEM (female rats, 600 mg/kg intragastric, experiment day 7): 222,5±5,43 g
- Body weight, M±SEM (female rats, 600 mg/kg intragastric, experiment day 15): 221,2±5,98 g
- Changes Appearance [3]: no
- Changes Behavior [3]: yes
- Changes Body Weight [3]: no
- Changes Feed Intake [3]: yes
- Changes Organ Histology [3]: yes
- Changes Organ Weight [3]: no
- Changes Water Intake [3]: no
- Relative organ weight, Adrenal glands [3]: 0,04±0,004 % of body weight
- Relative organ weight, Brain [3]: 0,97±0,022 % of body weight
- Relative organ weight, Heart [3]: 0,52±0,02 % of body weight
- Relative organ weight, Kidneys [3]: 0,82±0,027 % of body weight
- Relative organ weight, Liver [3]: 4,67±0,23 % of body weight
- Relative organ weight, Lungs with trachea [3]: 0,79±0,057 % of body weight
- Relative organ weight, Ovaries [3]: 0,085±0,0075 % of body weight
- Relative organ weight, Spleen [3]: 0,42±0,05 % of body weight
- Relative organ weight, Thymus [3]: 0,270±0,020 % of body weight
- Body weight, M±SEM (female rats, 1000 mg/kg intragastric, experiment day 1): 185,7±4,61 g
- Body weight, M±SEM (female rats, 1000 mg/kg intragastric, experiment day 2): 192,2±3,94 g
- Body weight, M±SEM (female rats, 1000 mg/kg intragastric, experiment day 7): 189,6±6,16 g
- Body weight, M±SEM (female rats, 1000 mg/kg intragastric, experiment day 15): 199,2±6,46 g
- Changes Appearance [4]: yes
- Changes Behavior [4]: yes
- Changes Body Weight [4]: no
- Changes Feed Intake [4]: yes
- Changes Organ Histology [4]: yes
- Changes Organ Weight [4]: no
- Changes Water Intake [4]: no
- Relative organ weight, Adrenal glands [4]: 0,04±0,004 % of body weight
- Relative organ weight, Brain [4]: 0,93±0,027 % of body weight
- Relative organ weight, Heart [4]: 0,41±0,079 % of body weight
- Relative organ weight, Kidneys [4]: 0,89±0,033 % of body weight
- Relative organ weight, Liver [4]: 4,73±0,167 % of body weight
- Relative organ weight, Lungs with trachea [4]: 0,9±0,07 % of body weight
- Relative organ weight, Ovaries [4]: 0,088±0,0092 % of body weight
- Relative organ weight, Spleen [4]: 0,38±0,028 % of body weight
- Relative organ weight, Thymus [4]: 0,310±0,032 % of body weight
- Body weight, M±SEM (female rats, 2000 mg/kg intragastric, experiment day 1): 196,5±2,06 g
- Body weight, M±SEM (female rats, 2000 mg/kg intragastric, experiment day 2): 205,8±1,64 g
- Body weight, M±SEM (female rats, 2000 mg/kg intragastric, experiment day 7): 183,5±11,99 g
- Body weight, M±SEM (female rats, 2000 mg/kg intragastric, experiment day 15): 210,8±5,91 g
- number of animals that died (female rats): 2 animals
- Deaths (Dead/ Total) (female, 300 mg/kg, 14 days): 0/6
- Deaths (Dead/ Total) (female, 600 mg/kg, 14 days): 0/6
- Deaths (Dead/ Total) (female, 1000 mg/kg, 14 days): 1/6
- Deaths (Dead/ Total) (female, 2000 mg/kg, 14 days): 1/6
- Changes Appearance [5]: no
- Changes Behavior [5]: no
- Changes Body Weight [5]: no
- Changes Feed Intake [5]: no
- Changes Organ Histology [5]: no
- Changes Organ Weight [5]: no
- Changes Water Intake [5]: no
- Relative organ weight, Adrenal glands [5]: 0,022±0,0012 % of body weight
- Relative organ weight, Brain [5]: 0,77±0,020 % of body weight
- Relative organ weight, Heart [5]: 0,45±0,012 % of body weight
- Relative organ weight, Kidneys [5]: 0,98±0,046 % of body weight
- Relative organ weight, Liver [5]: 4,53±0,26 % of body weight
- Relative organ weight, Lungs with trachea [5]: 0,71±0,034 % of body weight
- Relative organ weight, Spleen [5]: 0,34±0,017 % of body weight
- Relative organ weight, Testes [5]: 1,17±0,039 % of body weight
- Relative organ weight, Thymus [5]: 0,246±0,0276 % of body weight
- Body weight, M±SEM (male rats, 300 mg/kg intragastric, experiment day 1): 202,8±2,87 g
- Body weight, M±SEM (male rats, 300 mg/kg intragastric, experiment day 2): 205,7±1,73 g
- Body weight, M±SEM (male rats, 300 mg/kg intragastric, experiment day 7): 256,7±4,65 g
- Body weight, M±SEM (male rats, 300 mg/kg intragastric, experiment day 15): 280,8±8,21 g
- Changes Appearance [6]: no
- Changes Behavior [6]: no
- Changes Body Weight [6]: no
- Changes Feed Intake [6]: no
- Changes Organ Histology [6]: yes
- Changes Organ Weight [6]: no
- Changes Water Intake [6]: no
- Relative organ weight, Adrenal glands [6]: 0,028±0,0017 % of body weight
- Relative organ weight, Brain [6]: 0,77±0,013 % of body weight
- Relative organ weight, Heart [6]: 0,50±0,013 % of body weight
- Relative organ weight, Kidneys [6]: 0,94±0,031 % of body weight
- Relative organ weight, Liver [6]: 4,69±0,216 % of body weight
- Relative organ weight, Lungs with trachea [6]: 0,86±0,108 % of body weight
- Relative organ weight, Spleen [6]: 0,32±0,036 % of body weight
- Relative organ weight, Testes [6]: 1,28±0,033 % of body weight
- Relative organ weight, Thymus [6]: 0,27±0,0191 % of body weight
- Body weight, M±SEM (male rats, 600 mg/kg intragastric, experiment day 1): 201,3±2,80 g
- Body weight, M±SEM (male rats, 600 mg/kg intragastric, experiment day 2): 222,2±2,63 g
- Body weight, M±SEM (male rats, 600 mg/kg intragastric, experiment day 7): 253,3±4,15 g
- Body weight, M±SEM (male rats, 600 mg/kg intragastric, experiment day 15): 274,3±6,51 g
- Changes Appearance [7]: no
- Changes Behavior [7]: yes
- Changes Body Weight [7]: no
- Changes Feed Intake [7]: yes
- Changes Organ Histology [7]: yes
- Changes Organ Weight [7]: no
- Changes Water Intake [7]: no
- Relative organ weight, Adrenal glands [7]: 0,027±0,0022 % of body weight
- Relative organ weight, Brain [7]: 0,77±0,036 % of body weight
- Relative organ weight, Heart [7]: 0,51±0,022 % of body weight
- Relative organ weight, Kidneys [7]: 0,87±0,008 % of body weight
- Relative organ weight, Liver [7]: 4,91±0,128 % of body weight
- Relative organ weight, Lungs with trachea [7]: 1,00±0,096 % of body weight
- Relative organ weight, Spleen [7]: 0,32±0,031 % of body weight
- Relative organ weight, Testes [7]: 1,11±0,064 % of body weight
- Relative organ weight, Thymus [7]: 0,278±0,0278 % of body weight
- Body weight, M±SEM (male rats, 1000 mg/kg intragastric, experiment day 1): 191,0±5,79 g
- Body weight, M±SEM (male rats, 1000 mg/kg intragastric, experiment day 2): 206,5±6,61 g
- Body weight, M±SEM (male rats, 1000 mg/kg intragastric, experiment day 7): 231,8±12,48 g
- Body weight, M±SEM (male rats, 1000 mg/kg intragastric, experiment day 15): 273,0±11,56 g
- Changes Appearance [8]: yes
- Changes Behavior [8]: yes
- Changes Body Weight [8]: no
- Changes Feed Intake [8]: yes
- Changes Organ Histology [8]: yes
- Changes Organ Weight [8]: no
- Changes Water Intake [8]: no
- Relative organ weight, Adrenal glands [8]: 0,026±0,0014 % of body weight
- Relative organ weight, Brain [8]: 0,78±0,024 % of body weight
- Relative organ weight, Heart [8]: 0,48±0,046 % of body weight
- Relative organ weight, Kidneys [8]: 0,90±0,034 % of body weight
- Relative organ weight, Liver [8]: 4,08±0,252 % of body weight
- Relative organ weight, Lungs with trachea [8]: 0,75±0,037 % of body weight
- Relative organ weight, Spleen [8]: 0,28±0,018 % of body weight
- Relative organ weight, Testes [8]: 1,2±0,120 % of body weight
- Relative organ weight, Thymus [8]: 0,20±0,0116 % of body weight
- Body weight, M±SEM (male rats, 2000 mg/kg intragastric, experiment day 1): 196,0±1,61 g
- Body weight, M±SEM (male rats, 2000 mg/kg intragastric, experiment day 2): 212,7±3,91 g
- Body weight, M±SEM (male rats, 2000 mg/kg intragastric, experiment day 7): 236,0±1,53 g
- Body weight, M±SEM (male rats, 2000 mg/kg intragastric, experiment day 15): 259,7±3,18 g
- number of animals that died (male rats): 4 animals
- Deaths (Dead/ Total) (male, 300 mg/kg, 14 day): 0/6
- Deaths (Dead/ Total) (male, 600 mg/kg, 14 day): 0/6
- Deaths (Dead/ Total) (male, 1000 mg/kg, 14 day): 1/6
- Deaths (Dead/ Total) (male, 2000 mg/kg, 14 day): 3/6
